The target of assay [1] is T1, human GST-DYRK1A (full length) (Homo sapiens, UniProt Q13627).
T1 construct: purified human GST-DYRK1A (full length, Thermo scientifics) enzyme; GST; purchased Thermo scientifics
Kind of assay: GST-DYRK1A enzyme inhibition, ADP-Glo kinase assay. Type of assay: biochemical. Particulars: read-out: DYRK1 IC50. As to the method: (§1) In order to evaluate the inhibitory activity of the compounds according to the present invention on LRRK2, LRRK2 (G2019S), DYRK1, CLK1 and TTK kinases, the following experiment was performed.
(§2) Example compounds were reacted with the purified human GST-DYRK1A (full length, Thermo scientifics) enzyme to evaluate the enzyme inhibitory ability as follows. As the reaction buffer, the composition of 40 mM Tris-HCl pH 7.4, 20 mM MgCl2, 0.5 mg/mL BSA, and 50 uM DTT was used, and the reaction of all test materials was performed on the reaction buffer. During the test, the human GST-DYRK1A (full length, 10 ng) enzyme, the purified ATP (10 uM), and a specific substrate solution were reacted at 25° C. for 1 hour, and then the enzyme activity was identified using the in vitro ADP-Glo™ kinase assay (promega). Luminescence was measured by reacting the enzyme activity reaction solution, an ADP-Glo reaction solution and the enzyme potency detection solution in a ratio of 2:2:1. The degree of inhibition of enzyme activity according to the treatment concentrations of the respective compounds was calculated based on the fluorescence of the enzyme activity of a solvent control group that was not treated with the compound, where the concentration of each compound to inhibit enzyme activity inhibition by 50% was determined as an IC50 (nM) value. The IC50 of each compound was determined in triplicate data sets and obtained using Prism (version 7.01, GraphPad) software.
(§3) In the table below, the following designations were used for the evaluation of enzyme inhibitory ability.
In general terms: ADP-Glo first removes unused ATP, then detects ADP through luciferase.

Another assay addresses T2, human GST-CLK1 (129-end) (Homo sapiens, UniProt P49759).
T2 construct: purified human GST-CLK1 (129-end, Signalchem) enzyme; GST; purchased Signalchem
Description: GST-CLK1 enzyme inhibition, ADP-Glo kinase assay. Type of assay: biochemical. The conditions noted are these: ATP 10 uM. As to the method:
as §1
as §2, with “GST-CLK1 (129-end, Signalchem)” for “GST-DYRK1A (full length, Thermo scientifics)”, “GST-CLK1 (129-end, 3” for “GST-DYRK1A (full length, 10”
as §3

Broadly, the IC50 is the point on the concentration scale where inhibition reaches its midpoint.

T2 sequence (P49759 129-484 limits assumed): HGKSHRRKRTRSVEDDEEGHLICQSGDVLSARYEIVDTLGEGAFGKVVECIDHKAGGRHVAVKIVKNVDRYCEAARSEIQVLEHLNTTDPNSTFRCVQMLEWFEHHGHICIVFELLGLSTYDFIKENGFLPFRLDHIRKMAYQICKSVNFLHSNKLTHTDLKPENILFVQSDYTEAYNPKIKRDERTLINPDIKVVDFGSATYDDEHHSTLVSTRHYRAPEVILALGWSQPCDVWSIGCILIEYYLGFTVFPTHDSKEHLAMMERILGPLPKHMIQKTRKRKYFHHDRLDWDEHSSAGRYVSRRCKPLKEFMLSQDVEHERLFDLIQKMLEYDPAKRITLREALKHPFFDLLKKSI

Consider `O=C(c1ccc(Nc2cc(NC3CCC3)c3c(C(F)(F)F)c[nH]c3n2)c2c1OCCO2)N1CCC(N2CCOCC2)CC1` [Example 176, (8-((4-(cyclobutylamino)-3-(trifluoromethyl)-1H-pyrrolo[2,3-b]pyridin-6-yl)amino)-2,3-dihydrobenzo[b] [1,4]dioxin-5-yl)(4-morpholinopiperidin-1-yl)methanone], for which the IC50 (in assay [1]; at human GST-CLK1 (129-end)) was < 0.1 µM throughout.
With `CCCCNc1cc(Nc2ccc(C(=O)N3CCOCC3)c3c2OCCO3)nc2[nH]cc(C(F)(F)F)c12` [Example 169, (8-((4-(butylamino)-3-(trifluoromethyl)-1H-pyrrolo[2,3-b]pyridin-6-yl)amino)-2,3-dihydrobenzo [b] [1,4]dioxin-5-yl)(morpholino) methanone], the IC50 (in assay [1]; against human GST-CLK1 (129-end)) was 0.301 to 1 µM each time.
For the compound `COCCNc1cc(Nc2ccc(S(=O)(=O)N3CCC(N4CCOCC4)CC3)cc2OC)nc2[nH]cc(Cl)c12` [Example 78, 3-chloro-N^6-(2-methoxy-4-((morpholinopiperidin-1-yl)sulfonyl)phenyl)-N^4-(2-methoxyethyl)-1H-pyrrolo[2,3-b]pyridine-4,6-diamine], the IC50 (in assay [1]; against human GST-CLK1 (129-end)) was 0.301 to 1 µM in each case.
In the case of `COc1cc(S(=O)(=O)N2CCC(N3CCOCC3)CC2)ccc1Nc1cc(NC2CCCCC2)c2c(Cl)c[nH]c2n1` [Example 77, 3-chloro-N^4-cyclohexyl-N^6-(2-methoxy-4-((morpholinopiperidin-1-yl)sulfonyl)phenyl)-1H-pyrrolo[2,3-b]pyridine-4,6-diamine], the IC50 (in assay [1]; against human GST-CLK1 (129-end)) was 0.301 to 1 µM in each case.
Regarding `COc1cc(P(C)(C)=O)ccc1Nc1cc(C2CC2)c2c(C#N)c[nH]c2n1` [Example 230, 4-cyclopropyl-6-((4-(dimethylphosphoryl)-2-methoxyphenyl)amino)-1H-pyrrolo[2,3-b]pyridine-3-carbonitrile], the IC50 (in assay [1]; at human GST-CLK1 (129-end)) was 0.301 to 1 µM throughout.
As for `CCOCCNc1cc(Nc2ccc(C(=O)N3CCC(N4CCOCC4)CC3)c3c2OCCO3)nc2[nH]cc(C(F)(F)F)c12` [Example 167, (8-((4-((2-ethoxyethyl)amino)-3-(trifluoromethyl)-1H-pyrrolo[2,3-b]pyridin-6-yl)amino)-2,3-dihydrobenzo[b] [1,4]dioxin-5-yl)(4-morpholinopiperidin-1-yl)methanone], the IC50 (in assay [1]; at human GST-CLK1 (129-end)) was < 0.1 µM in each case.
On to `COCCNc1cc(Nc2ccc(S(C)(=O)=O)cc2OC)nc2[nH]cc(Cl)c12` [Example 87, 3-chloro-N^6-(2-methoxy-4-(methylsulfonyl)phenyl)-N^4-(2-methoxyethyl)-1H-pyrrolo[2,3-b]pyridine-4,6-diamine], for which the half-maximal inhibitory concentration (IC50) (in assay [1]; against human GST-CLK1 (129-end)) was 0.301 to 1 µM each time.
Turning to `CC(C)Nc1cc(Nc2ccc(C(=O)N3CCOCC3)c3c2OCCO3)nc2[nH]cc(C(F)(F)F)c12` [Example 168, (8-((4-(isopropylamino)-3-(trifluoromethyl)-1H-pyrrolo[2,3-b]pyridin-6-yl)amino)-2,3-dihydrobenzo [b] [1,4]dioxin-5-yl)(morpholino) methanone], the results for the IC50 (in assay [1]; against human GST-CLK1 (129-end)) were 0.301 to 1 µM and < 0.1 µM, respectively.
As to `COc1cc(S(=O)(=O)N2CCC(N3CCOCC3)CC2)ccc1Nc1cc(NCCS(C)(=O)=O)c2c(Cl)c[nH]c2n1` [Example 79, 3-chloro-N^6-(2-methoxy-4-((morpholinopiperidin-1-yl)sulfonyl)phenyl)-N^4-(2-(methylsulfonyl)ethyl)-1H-pyrrolo[2,3-b]pyridine-4,6-diamine], the IC50 (in assay [1]; on human GST-CLK1 (129-end)) was < 0.1 µM each time.
As to `CCCCNc1cc(Nc2ccc(C(=O)N3CCC(N4CCOCC4)CC3)c3c2OCCO3)nc2[nH]cc(C(F)(F)F)c12` [Example 170, (8-((4-(butylamino)-3-(trifluoromethyl)-1H-pyrrolo[2,3-b]pyridin-6-yl)amino)-2,3-dihydrobenzo[b] [1,4]dioxin-5-yl)(4-morpholinopiperidin-1-yl)methanone], the IC50 in assay [1] is 0.301 to 1 µM; on human GST-CLK1 (129-end), < 0.1 µM.
Turning to `CCNc1cc(Nc2ccc(C(=O)N3CCN(C4COC4)CC3)c3c2OCCO3)nc2[nH]cc(C#N)c12` [Example 35, 4-(ethylamino)-6-((8-(4-(oxetan-3-yl)piperazine-1-carbonyl)-2,3-dihydrobenzo[b] [1,4]dioxin-5-yl)amino)-1H-pyrrolo[2,3-b]pyridine-3-carbonitrile], the IC50 (in assay [1]; against human GST-CLK1 (129-end)) was 0.101 to 0.3 µM throughout.
In the case of `CCNc1cc(Nc2ccc(C(=O)N3CCOCC3)c3c2OCO3)nc2[nH]cc(C#N)c12` [Example 33], the IC50 lay in the range of 0.301 to 1 µM in assay [1] and 0.101 to 0.3 µM at human GST-CLK1 (129-end).
For the compound `COCCNc1cc(Nc2ccc(S(=O)(=O)N3CCOCC3)cc2OC)nc2[nH]cc(Cl)c12` [Example 71, 3-chloro-N^6-(2-methoxy-4-(morpholinosulfonyl)phenyl)-N^4-(2-methoxyethyl)-1H-pyrrolo[2,3-b]pyridine-4,6-diamine], the IC50 (in assay [1]; against human GST-CLK1 (129-end)) was 0.301 to 1 µM throughout.
With `CCNc1cc(Nc2ccc(C(=O)N3CCC(N4CCOCC4)CC3)c3c2OCO3)nc2[nH]cc(C#N)c12` [Example 34, 4-(ethylamino)-6-((7-(4-morpholinopiperidine-1-carbonyl)benzo[d] [1,3]dioxol-4-yl)amino)-1H-pyrrolo[2,3-b]pyridine-3-carbonitrile], the 50% inhibitory concentration (IC50) (in assay [1]; on human GST-CLK1 (129-end)) was < 0.1 µM each time.
For the compound `COc1cc(S(C)(=O)=O)ccc1Nc1cc(NC2CCCCC2)c2c(Cl)c[nH]c2n1` [Example 86, 3-chloro-N^4-cyclohexyl-N^6-(2-methoxy-4-(methylsulfonyl)phenyl)-1H-pyrrolo[2,3-b]pyridine-4,6-diamine], the 50% inhibitory concentration (IC50) (in assay [1]; against human GST-CLK1 (129-end)) was 0.301 to 1 µM in each case.
For the compound `N#Cc1c[nH]c2nc(Nc3ccc(C(=O)N4CCOCC4)c4c3OCCO4)cc(NC3CCC3)c12` [Example 36, 4-(cyclobutylamino)-6-((8-(morpholine-4-carbonyl)-2,3-dihydrobenzo[b] [1,4]dioxin-5-yl)amino)-1H-pyrrolo[2,3-b]pyridine-3-carbonitrile], the IC50 (in assay [1]; on human GST-CLK1 (129-end)) was 0.301 to 1 µM each time.
On to `CCOCCNc1cc(Nc2ccc(C(=O)N3CCOCC3)c3c2OCCO3)nc2[nH]cc(C(F)(F)F)c12` [Example 166, (8-((4-((2-ethoxyethyl)amino)-3-(trifluoromethyl)-1H-pyrrolo[2,3-b]pyridin-6-yl)amino)-2,3-dihydrobenzo[b] [1,4]dioxin-5-yl)(morpholino) methanone], for which the values for the IC50 (in assay [1]; against human GST-CLK1 (129-end)) were 0.101 to 0.3 µM and 0.301 to 1 µM, respectively.
Turning to `O=C(c1ccc(Nc2cc(NC3CCC3)c3c(C(F)(F)F)c[nH]c3n2)c2c1OCCO2)N1CCOCC1` [Example 175, (8-((4-(cyclobutylamino)-3-(trifluoromethyl)-1H-pyrrolo[2,3-b]pyridin-6-yl)amino)-2,3-dihydrobenzo[b] [1,4]dioxin-5-yl)(morpholino) methanone 2,2,2-trifluoroacetate], the IC50 in assay [1] fell in the range of 0.301 to 1 µM; against human GST-CLK1 (129-end), 0.101 to 0.3 µM.
Consider `O=C(c1ccc(Nc2cc(NC3CCCCC3)c3c(Cl)c[nH]c3n2)c2c1OCCO2)N1CCOCC1` [Example 61, (8-((3-chloro-4-(cyclohexylamino)-1H-pyrrolo[2,3-b]pyridin-6-yl)amino)-2,3-dihydrobenzo[b] [1,4]dioxin-5-yl)(morpholino) methanone], for which the IC50 (in assay [1]; against human GST-CLK1 (129-end)) was 0.301 to 1 µM each time.

The record behind these values is patent publication US12240844B2 (Voronoi, Inc., priority 2019, dated 2025).
